# Measurements published in ChEMBL document CHEMBL4414582, “Lathyrane, Premyrsinane, and Related Diterpenes from Euphorbia boetica: Effect on in Vitro Neural Progenitor Cell Proliferation” (J Nat Prod, 2019).
# Activity calls are given as the source filed them. The calls are words filed in the database; no cut-off is given here.
# Tests used:
# Mus musculus [1] = organism: Mus musculus; test: Activation of PKC in mouse neurospheres derived neural precursor cells assessed as increase in cell proliferation by measuring increase in neurosphere size at 5 to 10 uM after 72 hrs in presence of EGF and bFGF by phase contrast microscopic based analysis
# Mus musculus [2] = organism: Mus musculus; test: Activation of PKC in mouse neurospheres derived neural precursor cells assessed as cell proliferation by measuring neurosphere size at 1 uM after 72 hrs in presence of EGF and bFGF by phase contrast microscopic based analysis
# Mus musculus [3] = organism: Mus musculus; test: Activation of PKC in mouse neurospheres derived neural precursor cells assessed as cell proliferation by measuring neurosphere size at 1 to 10 uM after 72 hrs in presence of EGF by phase contrast microscopic based analysis
# [4] = Effect on self-renewal capacity in mouse neurospheres derived neural precursor cells assessed as neurosphere number at 1 to 10 uM after 72 hrs in presence of bFGF by phase contrast microscopic based analysis; format: ADME
# Mus musculus [5] = organism: Mus musculus; test: Activation of PKC in mouse neurospheres derived neural precursor cells assessed as increase in cell proliferation by measuring increase in neurosphere size after 72 hrs in presence of EGF and bFGF by phase contrast microscopic based analysis
# [6] = Effect on self renewal capacity in mouse neurospheres derived neural precursor cells assessed as neurosphere number at 1 to 10 uM after 72 hrs in presence of EGF and bFGF by phase contrast microscopic based analysis; format: ADME
# [7] = Effect on self-renewal capacity in mouse neurospheres derived neural precursor cells assessed as neurosphere number at 1 to 10 uM after 72 hrs in presence of EGF by phase contrast microscopic based analysis; format: ADME
# [8] = Effect on cell viability in mouse neurospheres derived neural precursor cells assessed as neurosphere number at 1 to 10 uM after 72 hrs in presence of bFGF and EGF by phase contrast microscopic based analysis
# [9] = Effect on cell viability in mouse neurospheres derived neural precursor cells assessed as neurosphere number at 1 to 10 uM after 72 hrs in presence of bFGF by phase contrast microscopic based analysis
# Mus musculus [10] = organism: Mus musculus; test: Activation of PKC in mouse neurospheres derived neural precursor cells assessed as cell proliferation by measuring neurosphere size at 1 to 10 uM after 72 hrs in presence of bFGF by phase contrast microscopic based analysis
# [11] = Effect on cell viability in mouse neurospheres derived neural precursor cells assessed as neurosphere number at 1 to 10 uM after 72 hrs in presence of EGF by phase contrast microscopic based analysis
# Mus musculus [12] = organism: Mus musculus; test: Activation of PKC in mouse neurospheres derived neural precursor cells assessed as increase in cell proliferation by measuring increase in neurosphere area at 5 uM after 72 hrs in presence of EGF and bFGF by phase contrast microscopic based analysis
Activity (Mus musculus [1]),Activity (Mus musculus [2]),Activity (Mus musculus [3]),Activity (Mus musculus [5]),Activity (Mus musculus [10]),Activity (Mus musculus [12]),Structure (SMILES),Activity [4],Activity [6],Activity [7],Activity [8],Activity [9],Activity [11]
Active,inactive,inactive,Dose-dependent effect,inactive,,CC(=O)O[C@@H]1[C@@H]2[C@@H](OC(C)=O)[C@]3(CC[C@H]4[C@@H](/C=C(\C)C(=O)[C@@]2(OC(C)=O)C[C@@H]1C)C4(C)C)CO3,Non-Toxic,Non-Toxic,Non-Toxic,Non-Toxic,Non-Toxic,Non-Toxic
,,,,,Active,C=C1CC[C@H]2[C@@H](/C=C(\C)C(=O)[C@@]3(OC(C)=O)C[C@H](C)[C@H](OC(C)=O)[C@@H]3[C@H]1OC(C)=O)C2(C)C,Non-Toxic,Non-Toxic,Non-Toxic,Non-Toxic,Non-Toxic,Non-Toxic
